Assay results reported in patent US8999944B2, “Thioredoxin interacting protein (TXNIP) as regulator of vascular function” (University of Rochester, priority 2005, dated 2015).

Tested on: VCAM1
Assay: TNF-induced VCAM1 expression in HUVEC (immunoblotting)
Type: cell-based, human
Details: for TNF-induced VCAM1 expression: inhibitor at 30 μM
Description: FIG. […] VCAM-1 expression was determined by immunoblotting from 3 independent experiments. Equal protein loading was confirmed with actin antibody.
To knockdown TXNIP, HUVEC were treated with small interference RNA (siRNA) against human TXNIP coding region. The target sequences were: 5′-AAGCCGTTAGGATCCTGGCTT (SEQ ID NO: 1) for human TXNIP and 5′-AATTCTCCGAACGTGTCACGT-3′ (SEQ ID NO: 2) for control non-silencing siRNA, respectively (Qiagen-Xeragon). HUVEC at >90% confluence in 60-mm dishes were used for transfection. […] This mixture was added to HUVEC in normal culture media (2 ml) and cells were incubated for 1.5 h. The medium was changed and cells recovered for 24 h. The transfection was repeated and after 24 h, cells were used for experiments.
I.P. and I.B. experiments were performed as described previously (Surapisitchat et al., “Fluid Shear Stress Inhibits TNF-Alpha Activation of JNK but not ERK½ or p38 in Human Umbilical Vein Endothelial Cells: Inhibitory Crosstalk Among MAPK Family Members,” Proc Natl Acad Sci USA 98:6476-6481 (2001); Liu et al., “Laminar Flow Inhibits TNF-Induced ASK1 Activation by Preventing Dissociation of ASK1 From its Inhibitor 14-3-3,” J Clin Invest 107:917-923 (2001); Yamawaki et al., “Chronic Physiological Shear Stress Inhibits Tumor Necrosis Factor-Induced Proinflammatory Responses in Rabbit Aorta Perfused ex vivo,” Circulation 108:1619-1625 (2003), each of which is hereby incorporated by reference in its entirety). The resulting autoradiograms were analyzed with NIH Image 1.60. Experiments were performed at least three times and equal loading of protein was ensured by measuring actin expression.

| SMILES | TNF-induced VCAM1 expression | effect on VCAM1 expression (inhibitor at 10 μM, n=4) |
| --- | --- | --- |
| COc1cccc(-c2cc(=O)c3ccccc3o2)c1N [PD98059] | not |  |
| C[S+]([O-])c1ccc(-c2nc(-c3ccncc3)c(-c3ccc(F)cc3)[nH]2)cc1 (stereo not drawn) [SB203580] | almost completely blocked |  |
| Oc1c2ccccc2c2c3c(cccc13)N=N2 [SP600125] |  | no effect |
